Laboratory results: patent US12263248B2, “Compounds and compositions for intracellular delivery of therapeutic agents” (ModernaTX, Inc., priority 2018, dated 2025)

Key:
luciferase (Luc) mRNA [1] = assay: Luc expression in liver, lung, spleen and femur 6 hours after intravenous administration; assay type: in vivo; details: mice, 0.5 mpk; for Total Flux Liver / Total Flux Lung / Total Flux Spleen: intravenous
How it was run: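 LNP-formulated mRNA given IV to mice (n=3) at 0.5 mpk; at 6 h, bioluminescence imaged ex vivo 15 min after IP D-luciferin (15 mg/mL, 200 μL), organs imaged within 25 min. Values are total flux by region of interest.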

[2] = Particle size and polydispersity index of nanoparticle compositions (Zetasizer Nano ZS); assay type: physicochemical; details: Table 1A; for Size (nm): lipid:DSPC:cholesterol:PEG-DMG 50:10:38.5:1.5 mol %
How it was run: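 Zetasizer Nano ZS; samples in 1×PBS; read-out: particle size plus polydispersity index.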

[3] = Apparent (surface) pKa of the LNP formulation (TNS assay); assay type: physicochemical; details: Table 1A
Procedure: Using sodium hydroxide (1 M) and hydrochloric acid (1 M), 21 unique buffers were prepared from the master buffer stock at pH values between about 3 and 12. Next, a stock of 300 μM 6-(p-Toluidino)-2-naphthalenesulfonic acid sodium salt (TNS reagent) in DMSO was prepared and the LNP was mixed with the desired formulation buffer at a concentration of 0.04 mg/mL mRNA. This assay has been validated in 1× PBS and 20 mM Tris w/8% sucrose buffer. The buffer solutions at various pH values were added to a 96-well plate in triplicate for each pH. To each well was added 3.26 μL of LNP sample at a mRNA concentration of 0.04 mg/mL and 2.0 μL of 300 μM TNS reagent solution. After careful mixing, the resulting fluorescence values were read for each plate to create a sigmoidal plot of the fluorescence values vs. buffer pH. The […] inflection point of this curve is the apparent pKa of the LNP formulation.

[4] = Encapsulation efficiency of RNA (QUANT-IT RIBOGREEN RNA assay); assay type: physicochemical; details: Table 1A
How it was run: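 RiboGreen fluorescence (ex ~480, em ~520 nm) compared between intact samples and Triton X-100-lysed samples after 15 min at 37 °C in TE buffer, pH 7.5. Percent free RNA is the blank-corrected intact/disrupted ratio.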

luciferase (Luc) mRNA [5] = assay: Luc expression, whole body bioluminescence after intravenous administration to mice; assay type: in vivo; details: for Fold increase in total body Luc Flux relative to MC3 at 6 h: Table 3A; for Fold increase in total body Luc Flux relative to MC3 at 6 h / 6 h Lipid/MC3 Avg. Luc Expression / Fold increase AUC Lipid/MC3 / AUC (h * p/s): i.v. administration; for Total Flux 3 hours / Total Flux 6 hours / Total Flux 24 hours: mice, i.v., 0.5 mg/kg, Luc mRNA; for 6 h Lipid/MC3 Avg. Luc Expression / Fold increase AUC Lipid/MC3 / AUC (h * p/s): Table 3C; for AUC (h * p/s): Luc
How it was run: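 Bioluminescence, read as region-of-interest total flux at 3, 6 and 24 h, followed a single 0.5 mg/kg intravenous dose of Luc mRNA-loaded nanoparticles in mice (n=6). Luciferin substrate (200 μL, 15 mg/mL in PBS) was injected intraperitoneally into CD-1 mice 15 minutes ahead of each imaging point.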

CCCCCCCCC(CCCCCCCC)OC(=O)CCCCCCCN(CCO)CCCCCC(=O)OC1CCC(CCCCC)CC1 (stereo not drawn) [Compound 68, Heptadecan-9-yl 8-((2-hydroxyethyl)(6-oxo-6-((4-pentylcyclohexyl)oxy)hexyl)amino)octanoate]
Total Flux Liver (luciferase (Luc) mRNA [1]): 8.42E+09 | Total Flux Lung (luciferase (Luc) mRNA [1]): 3.98E+07 | Total Flux Spleen (luciferase (Luc) mRNA [1]): 6.69E+07 | PDI [2]: 0.14 | Size (nm) [2]: 76.8 nm | pKa [3]: 6.69 | EE (%) [4]: 97.7% | Fold increase in total body Luc Flux relative to MC3 at 6 h (luciferase (Luc) mRNA [5]): 3.68 | Total Flux 3 hours (luciferase (Luc) mRNA [5]): 5.22E+10 | Total Flux 6 hours (luciferase (Luc) mRNA [5]): 8.16E+10 | Total Flux 24 hours (luciferase (Luc) mRNA [5]): 2.15E+09

CCCCCCCCC(C)OC(=O)CCCN(CCO)CCCCCCCC(=O)OC(CCCCCCCC)CCCCCCCC (stereo not drawn) [Compound 70, Heptadecan-9-yl 8-((4-(decan-2-yloxy)-4-oxobutyl)(2-hydroxyethyl)amino)octanoate]
Total Flux Liver (luciferase (Luc) mRNA [1]): 8.55E+08 | Total Flux Lung (luciferase (Luc) mRNA [1]): 6.32E+06 | Total Flux Spleen (luciferase (Luc) mRNA [1]): 2.06E+06 | PDI [2]: 0.15 | Size (nm) [2]: 73.7 nm | pKa [3]: 6.51 | EE (%) [4]: 97.5% | Total Flux 3 hours (luciferase (Luc) mRNA [5]): 4.70E+10 | Total Flux 6 hours (luciferase (Luc) mRNA [5]): 2.49E+10 | Total Flux 24 hours (luciferase (Luc) mRNA [5]): 9.27E+08

CCCCCCCCC(CCCCCCCC)OC(=O)CCCCCCCN(CCO)CCCC(=O)OC(CCCCCC)CCCCCCCC (stereo not drawn) [Compound 73, Heptadecan-9-yl 8-((2-hydroxyethyl)(4-oxo-4-(pentadecan-7-yloxy)butyl)amino)octanoate]
Total Flux Liver (luciferase (Luc) mRNA [1]): 7.93E+08 | Total Flux Lung (luciferase (Luc) mRNA [1]): 6.17E+06 | Total Flux Spleen (luciferase (Luc) mRNA [1]): 9.45E+06 | PDI [2]: 0.13 | Size (nm) [2]: 59.2 nm | pKa [3]: 5.95 | EE (%) [4]: 95.7% | Fold increase in total body Luc Flux relative to MC3 at 6 h (luciferase (Luc) mRNA [5]): 0.48 | Total Flux 3 hours (luciferase (Luc) mRNA [5]): 8.10E+09 | Total Flux 6 hours (luciferase (Luc) mRNA [5]): 1.07E+10 | Total Flux 24 hours (luciferase (Luc) mRNA [5]): 1.27E+08

CCCCCCCCC(CCC)OC(=O)CCCN(CCO)CCCCCCCC(=O)OC(CCCCCCCC)CCCCCCCC (stereo not drawn) [Compound 74, Heptadecan-9-yl 8-((4-(dodecan-4-yloxy)-4-oxobutyl)(2-hydroxyethyl)amino)octanoate]
Total Flux Liver (luciferase (Luc) mRNA [1]): 1.99E+09 | Total Flux Lung (luciferase (Luc) mRNA [1]): 6.93E+06 | Total Flux Spleen (luciferase (Luc) mRNA [1]): 2.26E+07 | PDI [2]: 0.15 | Size (nm) [2]: 65.6 nm | pKa [3]: 6.08 | EE (%) [4]: 97% | Fold increase in total body Luc Flux relative to MC3 at 6 h (luciferase (Luc) mRNA [5]): 1.005 | Total Flux 3 hours (luciferase (Luc) mRNA [5]): 3.27E+10 | Total Flux 6 hours (luciferase (Luc) mRNA [5]): 2.23E+10 | Total Flux 24 hours (luciferase (Luc) mRNA [5]): 2.75E+08

CCCCCCCCCOC(=O)CCCCCCCN(CCO)CCCCCCCC(=O)OC1CCC(CCCCC)CC1 (stereo not drawn) [Compound 79, Nonyl 8-((2-hydroxyethyl)(8-oxo-8-((4-pentylcyclohexyl)oxy)octyl)amino)octanoate]
Total Flux Liver (luciferase (Luc) mRNA [1]): 3.15E+06 | Total Flux Lung (luciferase (Luc) mRNA [1]): 6.13E+04 | Total Flux Spleen (luciferase (Luc) mRNA [1]): 6.45E+05 | PDI [2]: 0.18 | Size (nm) [2]: 93.7 nm | pKa [3]: 7.53 | EE (%) [4]: 89.1% | Total Flux 3 hours (luciferase (Luc) mRNA [5]): 3.23E+08 | Total Flux 6 hours (luciferase (Luc) mRNA [5]): 5.27E+08 | Total Flux 24 hours (luciferase (Luc) mRNA [5]): 3.08E+07

CCCCCCCCCOC(=O)CCCCCCCN(CCO)CCCCCCCC(=O)OC1CCC(C2CCCCC2)CC1 (stereo not drawn) [Compound 80, [1,1′—Bi(cyclohexan)]-4-yl 8-((2-hydroxyethyl)(8-(nonyloxy)-8-oxooctyl)amino)octanoate]
Total Flux Liver (luciferase (Luc) mRNA [1]): 1.09E+07 | Total Flux Lung (luciferase (Luc) mRNA [1]): 8.97E+04 | Total Flux Spleen (luciferase (Luc) mRNA [1]): 4.71E+06 | PDI [2]: 0.19 | Size (nm) [2]: 118 nm | pKa [3]: 7.52 | EE (%) [4]: 90.7% | Total Flux 3 hours (luciferase (Luc) mRNA [5]): 2.76E+08 | Total Flux 6 hours (luciferase (Luc) mRNA [5]): 3.26E+08 | Total Flux 24 hours (luciferase (Luc) mRNA [5]): 1.54E+07

CCCCCCCCCOC(=O)CCCCCCCN(CCO)CCCCCCCC(=O)OC1CCCCCCCCCCCCCC1 [Compound 81, Cyclopentadecyl 8-((2-hydroxyethyl)(8-(nonyloxy)-8-oxooctyl)amino)octanoate]
Total Flux Liver (luciferase (Luc) mRNA [1]): 2.74E+08 | Total Flux Lung (luciferase (Luc) mRNA [1]): 6.23E+06 | Total Flux Spleen (luciferase (Luc) mRNA [1]): 4.49E+07 | PDI [2]: 0.14 | Size (nm) [2]: 99.2 nm | pKa [3]: 7.14 | EE (%) [4]: 95.4% | Total Flux 3 hours (luciferase (Luc) mRNA [5]): 7.87E+09 | Total Flux 6 hours (luciferase (Luc) mRNA [5]): 9.96E+09 | Total Flux 24 hours (luciferase (Luc) mRNA [5]): 5.13E+08

CCCCCCCCCOC(=O)CCCCCCCN(CCCCCCCC(=O)OC(CCCCCCCC)CCCCCCCC)CCN1CCN(C)CC1 [Compound 101, Heptadecan-9-yl 8-((2-(4-methylpiperazin-1-yl)ethyl)(8-(nonyloxy)-8-oxooctyl)amino)octanoate]
Total Flux Liver (luciferase (Luc) mRNA [1]): 1.27E+07 | Total Flux Lung (luciferase (Luc) mRNA [1]): 1.77E+05 | Total Flux Spleen (luciferase (Luc) mRNA [1]): 5.60E+06 | PDI [2]: 0.230 | Size (nm) [2]: 91.7 nm | pKa [3]: 7.27 | EE (%) [4]: 98.96% | 6 h Lipid/MC3 Avg. Luc Expression (luciferase (Luc) mRNA [5]): 0.019 | Fold increase AUC Lipid/MC3 (luciferase (Luc) mRNA [5]): 0.022 | AUC (h * p/s) (luciferase (Luc) mRNA [5]): 1.8E+09 h * p/s | Total Flux 3 hours (luciferase (Luc) mRNA [5]): 1.89E+08 | Total Flux 6 hours (luciferase (Luc) mRNA [5]): 1.41E+08 | Total Flux 24 hours (luciferase (Luc) mRNA [5]): 3.64E+06

CCCCCCCCCOC(=O)CCCCCCCN(CCCCCCCC(=O)OC(CCCCCCCC)CCCCCCCC)CCN1CCOCC1 [Compound 103, Heptadecan-9-yl 8-((2-morpholinoethyl)(8-(nonyloxy)-8-oxooctyl)amino)octanoate]
Total Flux Liver (luciferase (Luc) mRNA [1]): 8.48E+07 | Total Flux Lung (luciferase (Luc) mRNA [1]): 2.06E+05 | Total Flux Spleen (luciferase (Luc) mRNA [1]): 2.65E+06 | PDI [2]: 0.160 | Size (nm) [2]: 78.8 nm | pKa [3]: 6.13 | EE (%) [4]: 90.77% | 6 h Lipid/MC3 Avg. Luc Expression (luciferase (Luc) mRNA [5]): 0.250 | Fold increase AUC Lipid/MC3 (luciferase (Luc) mRNA [5]): 0.291 | AUC (h * p/s) (luciferase (Luc) mRNA [5]): 2.4E+10 h * p/s | Total Flux 3 hours (luciferase (Luc) mRNA [5]): 2.68E+09 | Total Flux 6 hours (luciferase (Luc) mRNA [5]): 1.82E+09 | Total Flux 24 hours (luciferase (Luc) mRNA [5]): 9.45E+07

CCCCCCCCCOC(=O)CCCCCCCN(CCO)CCCCCCCC(=O)Oc1ccc(CCCCC)c(CCCCC)c1 [Compound 118, 3,4-Dipentylphenyl 8-((2-hydroxyethyl)(8-(nonyloxy)-8-oxooctyl)amino)octanoate]
Total Flux Liver (luciferase (Luc) mRNA [1]): 1.72E+08 | Total Flux Lung (luciferase (Luc) mRNA [1]): 1.98E+06 | Total Flux Spleen (luciferase (Luc) mRNA [1]): 2.49E+07 | PDI [2]: 0.08 | Size (nm) [2]: 72.1 nm | pKa [3]: 6.14 | EE (%) [4]: 98% | Total Flux 3 hours (luciferase (Luc) mRNA [5]): 1.46E+09 | Total Flux 6 hours (luciferase (Luc) mRNA [5]): 1.16E+09 | Total Flux 24 hours (luciferase (Luc) mRNA [5]): 4.37E+07

CCCCCCCCC(CCCCCCCC)OC(=O)CCCCCCCN(C)CCCCCCCC(=O)OC(CCCCCCCC)CCCCCCCC [Compound 124, Di(heptadecan-9-yl) 8,8′-(methylazanediyl)dioctanoate]
Flux in the spleen (luciferase (Luc) mRNA [1]; i.v., in words): lowest | Total Flux Liver (luciferase (Luc) mRNA [1]): 8.46E+06 | Total Flux Lung (luciferase (Luc) mRNA [1]): 5.67E+04 | Total Flux Spleen (luciferase (Luc) mRNA [1]): 8.06E+04 | PDI [2]: 0.1 | Size (nm) [2]: 61.3 nm | pKa [3]: 5.89 | EE (%) [4]: 97.7% | Total Flux 3 hours (luciferase (Luc) mRNA [5]): 6.62E+07 | Total Flux 6 hours (luciferase (Luc) mRNA [5]): 3.91E+09 | Total Flux 24 hours (luciferase (Luc) mRNA [5]): 5.13E+06
